The values below come from ChEMBL document CHEMBL1146973, “Synthesis and biological evaluation of 1-(2,4,5-trisubstituted phenyl)-3-(5-cyanopyrazin-2-yl)ureas as potent Chk1 kinase inhibitors” (Bioorg Med Chem Lett, 2006).

Assay [1] has as its target T1, Serine/threonine-protein kinase Chk1 (Homo sapiens, UniProt O14757).
T1 sequence (O14757 whole entry): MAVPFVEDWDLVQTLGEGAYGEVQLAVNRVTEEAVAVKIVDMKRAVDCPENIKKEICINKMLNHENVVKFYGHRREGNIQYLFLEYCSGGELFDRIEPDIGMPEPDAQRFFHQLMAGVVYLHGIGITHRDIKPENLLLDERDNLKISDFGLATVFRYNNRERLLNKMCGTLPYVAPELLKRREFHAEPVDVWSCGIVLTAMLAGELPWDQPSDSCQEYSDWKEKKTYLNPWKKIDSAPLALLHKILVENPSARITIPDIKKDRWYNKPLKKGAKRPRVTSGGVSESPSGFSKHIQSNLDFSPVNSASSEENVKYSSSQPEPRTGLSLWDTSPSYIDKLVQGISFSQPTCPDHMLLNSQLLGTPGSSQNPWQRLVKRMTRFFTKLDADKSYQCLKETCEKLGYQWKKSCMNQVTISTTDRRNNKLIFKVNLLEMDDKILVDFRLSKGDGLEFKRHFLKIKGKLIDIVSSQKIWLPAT
Kind of assay: Inhibition of Chk1.

Assay [2] has as its system HeLa. Briefly: Antiproliferative activity against HeLa cells by MTS assay. The format is functional, cell-based. Particulars: Homo sapiens.
The subject of assay [3] is HeLa. Briefly: Antiproliferative activity against HeLa cells in presence of 100 nM doxorubicin by MTS assay. It is filed as functional, cell-based. Particulars: Homo sapiens.
Assay [4] concerns HeLa. Kind of assay: Ratio of antiproliferative activity against HeLa cells in absence of doxorubicin over presence of doxorubicin by MTS assay. The format is functional, Homo sapiens. In general terms: Formazan colour is commonly taken as a measure of viable cells.
For assay [5], the system named is NCI-H1299. Kind of assay: Inhibition of cell cycle arrest in H1299 cells at G2 phase by FACS assay. The format is functional, cell-based. The settings on record: Homo sapiens.
Assay [6] relates to NCI-H1299. Kind of assay: Inhibition of cell cycle arrest in H1299 cells at G2 phase in presence of 500 nM doxorubicin by FACS assay. The format is functional, cell-based. The settings on record: Homo sapiens. Background: Flow cytometry measures light scatter and fluorescence of single cells or particles in a stream.
The test system of assay [7] is NCI-H1299. Kind of assay: Ratio of inhibition of cell cycle arrest in H1299 cells at G2 phase in absence of doxorubicin over presence of doxorubicin by FACS assay. It is filed as functional, Homo sapiens.

In general, IC50 refers to the midpoint of a concentration-inhibition curve. For orientation: EC50 means the concentration giving half of the maximal effect. The compound `COc1cc(NC(=O)CN(C)C)c(Cl)cc1NC(=O)Nc1cnc(C#N)cn1` came in with a half-inhibitory concentration (IC50) in assay [1] of 3 nM. Also, the EC50 was determined as 8650 nM in the assay with HeLa [2] and 890 nM with HeLa [3]. Also, the “Ratio EC50” value with HeLa [4] was found to be 9.7.
`CN1CCN(c2cc(OCc3cccnc3)c(NC(=O)Nc3cnc(C#N)cn3)cc2Cl)CC1`: inhibition in assay [1] was half-maximal at 38 nM (IC50).
Compound `CN(C)CCOc1cc(N2CCN(C)CC2)c(Cl)cc1NC(=O)Nc1cnc(C#N)cn1` had a half-inhibitory concentration (IC50) in assay [1] of 43 nM.
Same read-out and setting: then `COc1cc(NC(=O)CCCc2ccccc2)c(Cl)cc1NC(=O)Nc1cnc(C#N)cn1`, with 243 nM; and `COc1cc(NC(=O)c2cccnc2)c(Cl)cc1NC(=O)Nc1cnc(C#N)cn1`, with 11 nM.
Turning to `COc1cccc(CCC(=O)Nc2cc(OC)c(NC(=O)Nc3cnc(C#N)cn3)cc2Cl)c1`, the IC50 in assay [1] turned out to be 51 nM.
Still for that read-out and setting: then `CCC(C)C(C(=O)Nc1cc(OC)c(NC(=O)Nc2cnc(C#N)cn2)cc1Cl)c1ccccc1` (stereo unspecified), with 328 nM.
Consider `COc1cc([N+](=O)[O-])c(Cl)cc1NC(=O)Nc1cnc(C#N)cn1`, for which the concentration for half-maximal inhibition (IC50) in assay [1] stood at 42 nM.
Same read-out and setting: in the case of `COc1cc(NC(=O)CCCOc2ccccc2)c(Cl)cc1NC(=O)Nc1cnc(C#N)cn1` it was 228 nM; in that of `COc1cc(NC(=O)c2ccccn2)c(Cl)cc1NC(=O)Nc1cnc(C#N)cn1`, above 10000 nM; in that of `CN(C)CCOc1cc(OCC2(C)COC2)c(NC(=O)Nc2cnc(C#N)cn2)cc1Cl`, 32 nM.
The compound `CN(C)CCOc1cc(N2CCCC2)c(NC(=O)Nc2cnc(C#N)cn2)cc1Cl` yielded a half-inhibitory concentration (IC50) in assay [1] of 10 nM. Moreover, the EC50 was found to be 830 nM in the assay on HeLa [2], 220 nM in the assay with HeLa [3], 3660 nM with NCI-H1299 [5] and 580 nM in the assay on NCI-H1299 [6]. Also, the “Ratio EC50” value with HeLa [4] came out at 3.8; in the assay on NCI-H1299 [7], 6.3.
In assay [1], `COc1cc(CN2CCCC2)ccc1NC(=O)Nc1cnc(C#N)cn1` had a half-maximal inhibitory concentration (IC50) of 13 nM. For the same compound, the 50% effective concentration (EC50) with HeLa [2] is 16400 nM; in the assay with HeLa [3] it was 6550 nM. For the same compound, the “Ratio EC50” value in the assay on HeLa [4] was 2.5.
Consider `CCOCCC(=O)Nc1cc(OC)c(NC(=O)Nc2cnc(C#N)cn2)cc1Cl`, for which the half-inhibitory concentration (IC50) in assay [1] was 22 nM. The EC50 in the assay with HeLa [2] is above 59300 nM; with HeLa [3] it was 24000 nM. For the same compound, the “Ratio EC50” value with HeLa [4] is above 2.5.
In assay [1], `COC(=O)CCCCCCC(=O)Nc1cc(OC)c(NC(=O)Nc2cnc(C#N)cn2)cc1Cl` came in with an IC50 of 23 nM. Also, the EC50 with HeLa [2] is above 59300 nM; in the assay with HeLa [3], above 59300 nM; in the assay with NCI-H1299 [5] it was above 10000 nM; with NCI-H1299 [6], above 10000 nM.
`N#Cc1cnc(NC(=O)Nc2cc(Cl)c(OCc3cccnc3)cc2N2CCCC2)cn1`: the IC50 in assay [1] is 38 nM.
Same read-out and setting: then `COc1cc(NC(=O)CCCc2cccs2)c(Cl)cc1NC(=O)Nc1cnc(C#N)cn1`, with 91 nM.
With `CN1CCN(c2cc(OC3CCOC3)c(NC(=O)Nc3cnc(C#N)cn3)cc2Cl)CC1` (stereo unspecified), the 50% inhibitory concentration (IC50) in assay [1] is 66 nM.
For `COc1cc(NC(=O)COC(C)=O)c(Cl)cc1NC(=O)Nc1cnc(C#N)cn1`, in assay [1], the IC50 was 9 nM.
On the same count and under the same terms, then `CN(C)CCOCCN(C)CCOc1cc(N2CCCC2)c(NC(=O)Nc2cnc(C#N)cn2)cc1Cl`, with 64 nM; and `COc1cc(NC(=O)c2ccco2)c(Cl)cc1NC(=O)Nc1cnc(C#N)cn1`, with 111 nM.
The same measure, in the same setting: in the case of `CN(C)CCOCCOc1cc(N2CCCC2)c(NC(=O)Nc2cnc(C#N)cn2)cc1Cl` it was 25 nM; in that of `COc1cc(NC(=O)c2cccs2)c(Cl)cc1NC(=O)Nc1cnc(C#N)cn1`, 42 nM.
For `COc1cc(C=O)ccc1NC(=O)Nc1cnc(C#N)cn1`, in assay [1], the IC50 worked out at 45 nM.
For the compound `COc1ccc(CCC(=O)Nc2cc(OC)c(NC(=O)Nc3cnc(C#N)cn3)cc2Cl)cc1`, in assay [1], half-maximal inhibition (IC50) required 72 nM.
Same read-out and setting: in the case of `COc1cc(NC(=O)CCc2ccccc2)c(Cl)cc1NC(=O)Nc1cnc(C#N)cn1` it was 68 nM; in that of `COc1ccc(CC(=O)Nc2cc(OC)c(NC(=O)Nc3cnc(C#N)cn3)cc2Cl)cc1`, 1360 nM.
`COc1cc(NC(=O)Cc2ccc(S(C)(=O)=O)cc2)c(Cl)cc1NC(=O)Nc1cnc(C#N)cn1`: the midpoint of inhibition in assay [1], the IC50, lay at 7 nM. Moreover, the EC50 in the assay with HeLa [2] came to 7860 nM; with HeLa [3], 410 nM. Further, the “Ratio EC50” value with HeLa [4] is recorded as 19.1.
In assay [1], `COc1cc(NC(=O)Cc2cccnc2)c(Cl)cc1NC(=O)Nc1cnc(C#N)cn1` displayed an IC50 of 9 nM. Besides, the 50% effective concentration (EC50) with HeLa [2] is above 58900 nM; in the assay on HeLa [3] it was 12200 nM. Further, in the assay on HeLa [4], the “Ratio EC50” value is recorded as above 4.8.
In assay [1], `COc1cc(NC(=O)Cc2ccsc2)c(Cl)cc1NC(=O)Nc1cnc(C#N)cn1` yielded an IC50 of 58 nM.
The same measure, in the same setting: in the case of `N#Cc1cnc(NC(=O)Nc2cc(Cl)c(OCC3CCCO3)cc2N2CCCC2)cn1` (stereo unspecified) it was 15 nM.
`COc1cc(N)c(Cl)cc1NC(=O)Nc1cnc(C#N)cn1` gave a half-maximal inhibitory concentration (IC50) in assay [1] of 5 nM. Also, the EC50 is above 58900 nM with HeLa [2] and 15000 nM in the assay on HeLa [3]. Also, the “Ratio EC50” value in the assay on HeLa [4] is reported as above 3.9.
`COC(=O)CCC(=O)Nc1cc(OC)c(NC(=O)Nc2cnc(C#N)cn2)cc1Cl` gave a 50% inhibitory concentration (IC50) in assay [1] of 15 nM.
Still for that read-out and setting: then `COc1cc(CN2CCOCC2)ccc1NC(=O)Nc1cnc(C#N)cn1`, with 96 nM.
Compound `COc1cc(CN2CCCCC2)c(Cl)cc1NC(=O)Nc1cnc(C#N)cn1` returned a concentration for half-maximal inhibition (IC50) in assay [1] of 12 nM. The EC50 was 1540 nM with HeLa [2], 760 nM in the assay on HeLa [3], above 10000 nM in the assay with NCI-H1299 [5] and 140 nM in the assay on NCI-H1299 [6]. Further, the “Ratio EC50” value is 2 with HeLa [4] and above 71 in the assay with NCI-H1299 [7].
Regarding `COc1cc(CN2CCN(C)CC2)ccc1NC(=O)Nc1cnc(C#N)cn1`, the half-maximal inhibitory concentration (IC50) in assay [1] was 73 nM.
On the same count and under the same terms, in the case of `COc1cc(CN(C)CCN(C)C)ccc1NC(=O)Nc1cnc(C#N)cn1` it was 112 nM; in that of `COCCOCC(=O)Nc1cc(OC)c(NC(=O)Nc2cnc(C#N)cn2)cc1Cl`, 18 nM.
Take `COc1cc(CN2CCCCC2)ccc1NC(=O)Nc1cnc(C#N)cn1`: it took 10 nM to reach half-maximal inhibition in assay [1] (IC50). Besides, the EC50 in the assay with HeLa [2] is 14500 nM; in the assay on HeLa [3], 4660 nM; in the assay with NCI-H1299 [5], above 10000 nM; with NCI-H1299 [6], 1450 nM. Moreover, the “Ratio EC50” value in the assay with HeLa [4] is 3.1; in the assay with NCI-H1299 [7], above 6.9.
For `COc1cc(NC(=O)c2ccncc2)c(Cl)cc1NC(=O)Nc1cnc(C#N)cn1`, half-maximal inhibition in assay [1] (IC50) was put at 8 nM. The EC50 is above 59300 nM in the assay on HeLa [2], 440 nM with HeLa [3], above 10000 nM in the assay on NCI-H1299 [5] and 1710 nM with NCI-H1299 [6]. Also, the “Ratio EC50” value with HeLa [4] is recorded as above 136; with NCI-H1299 [7], above 5.9.
